Values of other authors, collected in PMC3762478 (Bioorganic & medicinal chemistry letters, 2013).
Like-named read-outs stand apart in the source and are kept apart here.

Key:
−1 receptor (sigma-1) [1] = details: guinea-pig brain membranes
−1 receptor (sigma-1) [2] = details: rat brain homogenates

In the case of `CCCc1ccc2c(c1)sc(=O)n2CCN1CCCCCC1` [Compound 1], the “selectivity over −2 receptor” value (−1 receptor (sigma-1) [1]) is given as “over 1000 fold” and the Ki (−1 receptor (sigma-1) [1]; read-out: Ki for −1 receptor) is given as 0.56 nM.

For `O=c1sc2cc(CCCF)ccc2n1CCN1CCCCCC1` [Compound 2], the “selectivity over −2 receptor” value (−1 receptor (sigma-1) [2]) is listed as > 100,000 fold and the Ki (−1 receptor (sigma-1) [2]; read-out: Ki for −1 receptor) is listed as 0.0025 nM.
